The test system of one series is New Zealand White rabbit. Briefly: Toxicity of Arginine-containing formulation buffer following intravitreal administration. In kind it is in vivo. The protocol: A study was performed to determine the toxicity of an Arginine-containing formulation buffer following intravitreal administration to the New Zealand White rabbit for 4 weeks. Three buffers in 50 μl volumes and varying in concentrations of Arginine were injected intravitreally on a weekly basis for 3 weeks (i.e., three doses) and evaluated for toxicity. The three buffers were as follows: (1) 10 mM Histidine, 170 mM, Trehalose, 0.01% polysorbate 20, pH 5.5; (2) 50 mM Arginine, 10 mM, Histidine, 120 mM Trehalose, 0.01% polysorbate 20, pH 5.5; and (3) 150 mM Arginine, 10 mM Histidine, 0.01% polysorbate).

Series [1] in a line: Viscosity of the formulations. In kind it is physicochemical. The note with it: Table 5 summary; 150 mM excipient, IgG1/lambda monoclonal antibody. The protocol: Unless otherwise specifically stated, viscosity of any composition discussed herein is determined at a temperature of 20° C. and a shear rate of 1029 s^−1 with a cone spindle of geometry 0.50°/40 mm.

The record followed here is patent US10010513B2, “Aqueous pharmaceutical composition containing a biologic therapeutic agent and guanidine or a guanidine derivative and an injection including the composition” (Novartis AG, priority 2012, dated 2018).

For `N=C(N)NCCC[C@H](N)C(=O)O` [arginine], the “Damage to photoreceptor cells of the eye” value in the series on New Zealand White rabbit (higher concentrations, about 150 mM) is “have shown damage to photoreceptor cells”; in the series with New Zealand White rabbit (lower concentrations of arginine), “do not cause damage to photoreceptor cells”. The “Reduction of the viscosity of the biologic relative to trehalose, urea and taurin” value in series [1] is reported as “far superior in reducing the viscosity”.

Turning to `N=C(N)N` [guanidine], the “Reduction of the viscosity of the biologic relative to trehalose, urea and taurin” value in series [1] is reported as “far superior in reducing the viscosity”.
